From patent US20140357577A1, “HIV Membrane Fusion Inhibitors” (priority 2011, published 2014) come the findings set out here.

Starred links: 1 amine or outer side, 2 acyl side, 3 side chain; linkers in the order of their positions; H or OH if unused. *: point of attachment. cholesteryl‑oxycarbonylmethyl = CC(C)CCC[C@@H](C)[C@H]1CC[C@H]2[C@@H]3CC=C4C[C@@H](OC(=O)C*)CC[C@]4(C)[C@H]3CC[C@]12C; Palmitoyl = CCCCCCCCCCCCCCCC(=O)*; Suc = O=C(CCC(=O)[*:2])[*:1]; Pentanoyl = CCCCC(=O)*

For experiment [1], the system named is HIV wild type virus strain IIIB. Nature of the experiment: Standard Anti-Viral-Experiment (AVE), HIV-1 replication assay in MT4-LTR-EGFP cells, wild type IIIB. Type of experiment: cell-based. Particulars: 3 days, EGFP signal. An excerpt:
• Standard Anti-Viral-Experiment “AVE” (wild type HIV strain IIIB+HIV strain HXB2D side directed mutants V38A and Q40H)
The HIV-1 replication assay measures virus replication (HIV wild type virus strain 111B or HXB2D, or a HIV mutant virus strain HXB2D with mutation V38A or Q40H in the gp41 gene) as an induction of enhanced green fluorescent protein (EGFP) expression. The indicator MT4-LTR-EGFP cells contain an EGFP gene under the control of the HIV-1 LTR promoter sequence. Successful HIV-1 infection results in viral Tat protein expression and subsequent induction of EGFP expression. Compounds/peptides inhibiting HIV-1 infection are expected to reduce EGFP expression as compared to the untreated HIV-infected control.
Serial 4-fold dilutions of test compounds/peptides were mixed with HIV-1 (IIIB, HXB2D, or a HXB2D mutant virus (V38A or Q40H)) and MT4-LTR-EGFP cells and incubated at 37° C. After 3 days, the wells were examined for EGFP expression using an argon laser-scanning microscope. The effective compound/peptide concentration inhibiting 50% of the virus-induced EGFP signal (EC50) was determined by linear interpolation of the EGFP signal vs. logarithm of the compound concentration; (T20, C34 and Sifuvirtide were added as reference compounds). For the V38A and Q40H mutant viruses, results were reported as a fold change in EC50, as compared with a drug-susceptible wild type strain HXB2D, which forms the backbone of the mutant virus. • Standard AVE (50% Human Serum)

The next experiment deals with HIV-IIIB + 50% HS. Nature of the experiment: Standard AVE (50% Human Serum), HIV-1 replication assay in MT4-LTR-EGFP cells. The following applies: fold change vs EC50 in the assay without human serum. Type of experiment: cell-based. The text has this: The HIV-1 replication assay (with 50% human serum) measures virus replication as an induction of enhanced green fluorescent protein (EGFP) expression, in the presence of 50% human serum. The indicator MT4-LTR-EGFP cells contain an EGFP gene under the control of the HIV-1 LTR promoter sequence. Successful HIV-1 infection results in viral Tat protein expression and subsequent induction of EGFP expression. Compounds/peptides inhibiting HIV-1 infection are expected to reduce EGFP expression as compared to the untreated HIV-infected control. Compounds/peptides binding to human serum are expected to have a reduced activity for inhibiting the virus in the assay.
Serial 4-fold dilutions of test compounds/peptides were mixed with HIV-1 and MT4-LTR-EGFP cells and incubated at 37° C., in the presence of 50% human serum. After 3 days, the wells were examined for EGFP expression using an argon laser-scanning microscope. The effective compound/peptide concentration inhibiting 50% of the virus-induced EGFP signal (EC50) was determined by linear interpolation of the EGFP signal vs. logarithm of the compound concentration; T20, C34 and Sifuvirtide were added as reference compounds. Results were reported as a fold change in EC50, as compared with the acquired EC50 in the assay without human serum.

In experiment [1], “Ac-ACYIACIEALIRAAQEQQEKNEAALR-NH2 [Peptide 58]” registered an EC50 of 4 nM. The “HIV-IIIB + 50% HS (Fold change in EC50)” value with HIV-IIIB + 50% HS is given as 6.

For the substance “Ac-ACYLACIEALIRAAQEQQEKNEAALL-NH2 [Peptide 54]”, the EC50 in experiment [1] was determined as 3 nM. The “HIV-IIIB + 50% HS (Fold change in EC50)” value in the experiment on HIV-IIIB + 50% HS is reported as 2.

The substance “Ac-ACYLACIEALIRAAQEQQEKNEAALR-NH2 [Peptide 56]” returned an EC50 in experiment [1] of 4 nM. Besides, the “HIV-IIIB + 50% HS (Fold change in EC50)” value in the experiment with HIV-IIIB + 50% HS amounted to 2.

On to “Ac-ACYVACIEALIRAAQEQQEKNEAALR-NH2 [Peptide 62]”, for which the response in experiment [1] was half-maximal at 10 nM (EC50). In addition, the “HIV-IIIB + 50% HS (Fold change in EC50)” value in the experiment with HIV-IIIB + 50% HS was 2.

“Ac-CYAACIEALIRAAQEQQEKNEAALR-NH2 [Peptide 21]” returned an EC50 in experiment [1] of 5 nM. The “HIV-IIIB + 50% HS (Fold change in EC50)” value in the experiment on HIV-IIIB + 50% HS is 3.

For “Ac-CYAACIEALIRAAQEQQEKNEAALR-NH2 [Peptide 22]”, it took 35 nM to reach a half-maximal effect in experiment [1] (EC50). The “HIV-IIIB + 50% HS (Fold change in EC50)” value in the experiment on HIV-IIIB + 50% HS is reported as 2.

In the case of “Ac-aCYAACIEALIRAAQEQQEKNEAALr-NH2 [Peptide 75]”, it took 29 nM to reach a half-maximal effect in experiment [1] (EC50). Also, the “HIV-IIIB + 50% HS (Fold change in EC50)” value in the experiment on HIV-IIIB + 50% HS turned out to be 4.

In experiment [1], “ENYTRQIYRILEESQEQQDRNERDLL [Slfuvlrtlde-PBD, reference compound]” gave an EC50 of 36400 nM. For the same substance, the “HIV-IIIB + 50% HS (Fold change in EC50)” value in the experiment on HIV-IIIB + 50% HS turned out to be 0.8.

In turn, “Penlanoyl-ECYLACIEALIRAAQEQQEKNEAALR-NH2 (Pentanoyl-ECYLACIEALIRAAQEQQEKNEAALR-NH2; cysteine pairing not given here) [Peptide 39]” registered an EC50 in experiment [1] of 7 nM. Moreover, the “HIV-IIIB + 50% HS (Fold change in EC50)” value with HIV-IIIB + 50% HS stood at 5.

“Suc-ACYAACIEALIRAAQEQQEKNEAALR-NH2 (cysteine pairing not given here) [Peptide 67]” registered an EC50 in experiment [1] of 8 nM. Also, the “HIV-IIIB + 50% HS (Fold change in EC50)” value with HIV-IIIB + 50% HS is reported as 0.8.

In the case of “Suc-ANYAALIEALIRAAQEQQEKNEAALR-NH2 (SMILES CC[C@H](C)[C@H](NC(=O)[C@H](CC(C)C)NC(=O)[C@H](C)NC(=O)[C@H](CCC(=O)O)NC(=O)[C@@H](NC(=O)[C@H](CC(C)C)NC(=O)[C@H](C)NC(=O)[C@H](C)NC(=O)[C@H](Cc1ccc(O)cc1)NC(=O)[C@H](CC(N)=O)NC(=O)[C@H](C)NC(=O)CCC(=O)O)[C@@H](C)CC)C(=O)N[C@@H](CCCNC(=N)N)C(=O)N[C@@H](C)C(=O)N[C@@H](C)C(=O)N[C@@H](CCC(N)=O)C(=O)N[C@@H](CCC(=O)O)C(=O)N[C@@H](CCC(N)=O)C(=O)N[C@@H](CCC(N)=O)C(=O)N[C@@H](CCC(=O)O)C(=O)N[C@@H](CCCCN)C(=O)N[C@@H](CC(N)=O)C(=O)N[C@@H](CCC(=O)O)C(=O)N[C@@H](C)C(=O)N[C@@H](C)C(=O)N[C@@H](CC(C)C)C(=O)N[C@@H](CCCNC(=N)N)C(N)=O) [Peptide 3]”, it took 22 nM to reach a half-maximal effect in experiment [1] (EC50). Besides, the “HIV-IIIB + 50% HS (Fold change in EC50)” value in the experiment with HIV-IIIB + 50% HS came out at 0.4.

Regarding “Suc-ANYLALIEALIRAAQEQQEKNEAAL-NH2 (SMILES CC[C@H](C)[C@H](NC(=O)[C@H](CC(C)C)NC(=O)[C@H](C)NC(=O)[C@H](CCC(=O)O)NC(=O)[C@@H](NC(=O)[C@H](CC(C)C)NC(=O)[C@H](C)NC(=O)[C@H](CC(C)C)NC(=O)[C@H](Cc1ccc(O)cc1)NC(=O)[C@H](CC(N)=O)NC(=O)[C@H](C)NC(=O)CCC(=O)O)[C@@H](C)CC)C(=O)N[C@@H](CCCNC(=N)N)C(=O)N[C@@H](C)C(=O)N[C@@H](C)C(=O)N[C@@H](CCC(N)=O)C(=O)N[C@@H](CCC(=O)O)C(=O)N[C@@H](CCC(N)=O)C(=O)N[C@@H](CCC(N)=O)C(=O)N[C@@H](CCC(=O)O)C(=O)N[C@@H](CCCCN)C(=O)N[C@@H](CC(N)=O)C(=O)N[C@@H](CCC(=O)O)C(=O)N[C@@H](C)C(=O)N[C@@H](C)C(=O)N[C@@H](CC(C)C)C(N)=O) [Peptide 1]”, a half-maximal response in experiment [1] (EC50) required 4 nM. In addition, in the experiment on HIV-IIIB + 50% HS, the “HIV-IIIB + 50% HS (Fold change in EC50)” value was 0.4.

In experiment [1], “Suc-ECYLRCIEELIRKAQEQQEKNEAALRGSGC(cholesteryl-oxycarbonylmethyl)-NH2 (Suc-ECYLRCIEELIRKAQEQQEKNEAALRGSGC(cholesteryl‑oxycarbonylmethyl)-NH2; cysteine pairing not given here) [Peptide 82]” came in with an EC50 of 0.05 nM. Further, the “HIV-IIIB + 50% HS (Fold change in EC50)” value in the experiment on HIV-IIIB + 50% HS is listed as 6.

“Suc-ECYLRCIEELIRKAQEQQEKNEAALRGSGK(palmitoyl)-NH2 (Suc-ECYLRCIEELIRKAQEQQEKNEAALRGSGK(Palmitoyl)-NH2; cysteine pairing not given here) [Peptide 88]” yielded an EC50 in experiment [1] of 0.06 nM. Further, in the experiment with HIV-IIIB + 50% HS, the “HIV-IIIB + 50% HS (Fold change in EC50)” value stood at 3.

As for “Suc-ENYLRLIEELIRKAQEQQEKNEAALRGSGC(cholesteryl-oxycarbonylmethyl)-NH2 (Suc-ENYLRLIEELIRKAQEQQEKNEAALRGSGC(cholesteryl‑oxycarbonylmethyl)-NH2; SMILES CC[C@H](C)[C@H](NC(=O)[C@H](CC(C)C)NC(=O)[C@H](CCC(=O)O)NC(=O)[C@H](CCC(=O)O)NC(=O)[C@@H](NC(=O)[C@H](CC(C)C)NC(=O)[C@H](CCCNC(=N)N)NC(=O)[C@H](CC(C)C)NC(=O)[C@H](Cc1ccc(O)cc1)NC(=O)[C@H](CC(N)=O)NC(=O)[C@H](CCC(=O)O)NC(=O)CCC(=O)O)[C@@H](C)CC)C(=O)N[C@@H](CCCNC(=N)N)C(=O)N[C@@H](CCCCN)C(=O)N[C@@H](C)C(=O)N[C@@H](CCC(N)=O)C(=O)N[C@@H](CCC(=O)O)C(=O)N[C@@H](CCC(N)=O)C(=O)N[C@@H](CCC(N)=O)C(=O)N[C@@H](CCC(=O)O)C(=O)N[C@@H](CCCCN)C(=O)N[C@@H](CC(N)=O)C(=O)N[C@@H](CCC(=O)O)C(=O)N[C@@H](C)C(=O)N[C@@H](C)C(=O)N[C@@H](CC(C)C)C(=O)N[C@@H](CCCNC(=N)N)C(=O)NCC(=O)N[C@@H](CO)C(=O)NCC(=O)N[C@@H](CSCC(=O)O[C@H]1CC[C@@]2(C)C(=CC[C@H]3[C@@H]4CC[C@H]([C@H](C)CCCC(C)C)[C@@]4(C)CC[C@@H]32)C1)C(N)=O) [Peptide 32]”, the EC50 in experiment [1] was determined as 0.04 nM. Further, the “HIV-IIIB + 50% HS (Fold change in EC50)” value with HIV-IIIB + 50% HS was 13.

In turn, “Suc-ENYLRLIEELIRKAQEQQEKNEAALRGSGK(palmitoyl)-NH2 (Suc-ENYLRLIEELIRKAQEQQEKNEAALRGSGK(Palmitoyl)-NH2; SMILES CCCCCCCCCCCCCCCC(=O)NCCCC[C@H](NC(=O)CNC(=O)[C@H](CO)NC(=O)CNC(=O)[C@H](CCCNC(=N)N)NC(=O)[C@H](CC(C)C)NC(=O)[C@H](C)NC(=O)[C@H](C)NC(=O)[C@H](CCC(=O)O)NC(=O)[C@H](CC(N)=O)NC(=O)[C@H](CCCCN)NC(=O)[C@H](CCC(=O)O)NC(=O)[C@H](CCC(N)=O)NC(=O)[C@H](CCC(N)=O)NC(=O)[C@H](CCC(=O)O)NC(=O)[C@H](CCC(N)=O)NC(=O)[C@H](C)NC(=O)[C@H](CCCCN)NC(=O)[C@H](CCCNC(=N)N)NC(=O)[C@@H](NC(=O)[C@H](CC(C)C)NC(=O)[C@H](CCC(=O)O)NC(=O)[C@H](CCC(=O)O)NC(=O)[C@@H](NC(=O)[C@H](CC(C)C)NC(=O)[C@H](CCCNC(=N)N)NC(=O)[C@H](CC(C)C)NC(=O)[C@H](Cc1ccc(O)cc1)NC(=O)[C@H](CC(N)=O)NC(=O)[C@H](CCC(=O)O)NC(=O)CCC(=O)O)[C@@H](C)CC)[C@@H](C)CC)C(N)=O) [Peptide 55]” showed an EC50 in experiment [1] of 0.05 nM. Besides, the “HIV-IIIB + 50% HS (Fold change in EC50)” value with HIV-IIIB + 50% HS came to 3.

In turn, “Suc-aNYLALIEALIRAAQEQQEKNEAALr-NH2 [Peptide 12]” registered an EC50 in experiment [1] of 10 nM. For the same substance, the “HIV-IIIB + 50% HS (Fold change in EC50)” value in the experiment with HIV-IIIB + 50% HS turned out to be 0.4.

By EC50 is commonly meant the concentration needed to bring the measured effect to its halfway point. Lower therefore signals an effect from little substance.
